# From patent US12186283B2, “Bismuth-thiol compositions and methods of use” (Microbion Corporation, priority 2018, dated 2025)
# Assays:
# Pseudomonas aeruginosa [1] = assay: Broth microdilution MIC (Example 12)
# Pseudomonas aeruginosa [2] = conditions: P. aeruginosa ATCC 27853, QC organism; cited from earlier work
# Acinetobacter baumannii = assay: Broth microdilution MIC (Example 12)
# Escherichia coli [3] = conditions: E. coli ATCC 25922, QC organism; cited from earlier work
# Escherichia coli [4] = assay: Broth microdilution MIC (Example 12)
# Klebsiella pneumoniae = assay: Broth microdilution MIC (Example 12)
# S. aureus ATCC 29213 [5] = conditions: S. aureus ATCC 29213, QC organism; cited from earlier work
# S. aureus ATCC 29213 [6] = assay: Broth microdilution MIC, ATCC QC organism (Example 12); type: cell-based, Staphylococcus aureus; conditions: S. aureus ATCC 29213, QC organism
# Procedure: The in vitro activity of BisEDT and two additional bismuth-thiol investigational agents (MB-2B and MB-6) was determined for isolates of Escherichia coli, Klebsiella pneumoniae, Pseudomonas aeruginosa and Acinetobacter baumannii characterized for extended-spectrum β-lactamases (ESBL) and/or carbapenem resistance. In addition, vancomycin-intermediate Staphylococcus aureus (VISA) were evaluated. The majority of the isolates tested in the current study were multidrug-resistant (MDR) as defined by resistance to at least three different antibiotic classes. Susceptibility to the investigational compounds and relevant comparators was determined by broth microdilution conducted in accordance with guidelines from the Clinical and Laboratory Standards Institute (CLSI; 2,3).
# [7] = tested on: vancomycin-intermediate Staphylococcus aureus (VISA); assay: Broth microdilution MIC (Example 12)
# [8] = Staphylococcus aureus NRS 1 (hVISA)
# [9] = Staphylococcus aureus NRS 24 (hVISA)
smiles,measurement,setting,value
CC(C)(O/N=C(\C(=O)N[C@@H]1C(=O)N2C(C(=O)[O-])=C(C[n+]3ccccc3)CS[C@H]12)c1csc(N)n1)C(=O)O [CAZ],MIC,"Pseudomonas aeruginosa [1]; P. aeruginosa ATCC 27853, QC organism",2 µg/mL
same,MIC,"Pseudomonas aeruginosa [1]; Pseudomonas aeruginosa CDC 230, VIM/OXA",64 µg/mL
same,MIC,"Pseudomonas aeruginosa [1]; Pseudomonas aeruginosa CDC 231, KPC/OXA",>64 µg/mL
same,MIC,"Pseudomonas aeruginosa [1]; Pseudomonas aeruginosa CDC 241, IMP/OXA",>64 µg/mL
same,MIC,"Pseudomonas aeruginosa [1]; Pseudomonas aeruginosa CDC 246, NDM/OXA",>64 µg/mL
same,MIC,"Pseudomonas aeruginosa [1]; Pseudomonas aeruginosa CDC 250, NDM/OXA",>64 µg/mL
same,MIC,"Pseudomonas aeruginosa [1]; Pseudomonas aeruginosa CDC 356, KPC",64 µg/mL
same,MIC,"Pseudomonas aeruginosa [1]; Pseudomonas aeruginosa CDC 439, IMP",>64 µg/mL
same,MIC,"Pseudomonas aeruginosa [1]; Pseudomonas aeruginosa CDC 444, VIM",32 µg/mL
same,MIC,"Pseudomonas aeruginosa [1]; Pseudomonas aeruginosa CDC 457, VIM",>64 µg/mL
same,MIC,"Pseudomonas aeruginosa [1]; Pseudomonas aeruginosa CDC 516, KPC/AmpC",64 µg/mL
same,MIC,"Pseudomonas aeruginosa [1]; Pseudomonas aeruginosa CDC 518, KPC/AmpC",32 µg/mL
same,"MIC, QC range",Pseudomonas aeruginosa [2],(1-4) μg/mL
same,MIC,"Acinetobacter baumannii; Acinetobacter baumannii CDC 273, ESBL/OXA",64 µg/mL
same,MIC,"Acinetobacter baumannii; Acinetobacter baumannii CDC 274, ESBL/OXA",>64 µg/mL
same,MIC,"Acinetobacter baumannii; Acinetobacter baumannii CDC 275, ESBL/OXA",>64 µg/mL
same,MIC,"Acinetobacter baumannii; Acinetobacter baumannii CDC 277, ESBL/OXA",>64 µg/mL
same,MIC,"Acinetobacter baumannii; Acinetobacter baumannii CDC 284, ESBL/OXA",64 µg/mL
same,MIC,"Acinetobacter baumannii; Acinetobacter baumannii CDC 307, OXA",64 µg/mL
same,MIC,"Acinetobacter baumannii; Acinetobacter baumannii CDC 308, ESBL/OXA",64 µg/mL
same,MIC,"Acinetobacter baumannii; Acinetobacter baumannii CDC 311, OXA",>64 µg/mL
same,MIC,"Acinetobacter baumannii; Acinetobacter baumannii CDC 312, OXA",>64 µg/mL
same,MIC,"Acinetobacter baumannii; Acinetobacter baumannii CDC 313, ESBL/OXA",>64 µg/mL
same,MIC,"Acinetobacter baumannii; Acinetobacter baumannii NCTC 13304, OXA",>64 µg/mL
same,"MIC, QC range",Escherichia coli [3],(0.06-0.5) μg/mL
same,MIC,"Escherichia coli [4]; E. coli ATCC 25922, QC organism",0.25 µg/mL
same,MIC,"Escherichia coli [4]; E. coli ATCC 35218, QC organism",0.12 µg/mL
same,MIC,"Escherichia coli [4]; Escherichia coli ATCC 35218, ESBL",0.12 µg/mL
same,MIC,"Escherichia coli [4]; Escherichia coli ATCC BAA-2471, NDM",>64 µg/mL
same,MIC,"Escherichia coli [4]; Escherichia coli CDC 114, ESBL/KPC",>64 µg/mL
same,MIC,"Escherichia coli [4]; Escherichia coli CDC 118, ESBL/NDM",>64 µg/mL
same,MIC,"Escherichia coli [4]; Escherichia coli CDC 435, NDM",>64 µg/mL
same,MIC,"Escherichia coli [4]; Escherichia coli CDC 451, KPC",64 µg/mL
same,MIC,"Escherichia coli [4]; Escherichia coli CDC 503, ESBL/NDM",>64 µg/mL
same,MIC,"Escherichia coli [4]; Escherichia coli MMX 5745, KPC",32 µg/mL
same,MIC,"Escherichia coli [4]; Escherichia coli MMX 5755, ESBL",>64 µg/mL
same,MIC,"Escherichia coli [4]; Escherichia coli MMX 5756, ESBL",>64 µg/mL
same,MIC,"Escherichia coli [4]; Escherichia coli MMX 5758, ESBL",16 µg/mL
same,MIC,"Klebsiella pneumoniae; K. pneumoniae ATCC BAA-1705, QC organism",>64 µg/mL
same,MIC,"Klebsiella pneumoniae; Klebsiella pneumoniae ATCC BAA-1705, ESBL/KPC",>64 µg/mL
same,MIC,"Klebsiella pneumoniae; Klebsiella pneumoniae CDC 112, KPC",>64 µg/mL
same,MIC,"Klebsiella pneumoniae; Klebsiella pneumoniae CDC 113, ESBL/KPC",>64 µg/mL
same,MIC,"Klebsiella pneumoniae; Klebsiella pneumoniae CDC 115, ESBL/KPC",>64 µg/mL
same,MIC,"Klebsiella pneumoniae; Klebsiella pneumoniae CDC 120, ESBL/KPC",>64 µg/mL
same,MIC,"Klebsiella pneumoniae; Klebsiella pneumoniae CDC 126, ESBL/KPC",4 µg/mL
same,MIC,"Klebsiella pneumoniae; Klebsiella pneumoniae CDC 129, ESBL/KPC",>64 µg/mL
same,MIC,"Klebsiella pneumoniae; Klebsiella pneumoniae CDC 135, ESBL/VIM",>64 µg/mL
same,MIC,"Klebsiella pneumoniae; Klebsiella pneumoniae CDC 138, ESBL/NDM",>64 µg/mL
same,MIC,"Klebsiella pneumoniae; Klebsiella pneumoniae CDC 158, ESBL/NDM/OXA",>64 µg/mL
same,MIC,"Klebsiella pneumoniae; Klebsiella pneumoniae MMX 9029, ESBL",4 µg/mL
CN[C@H](CC(C)C)C(=O)N[C@H]1C(=O)N[C@@H](CC(N)=O)C(=O)N[C@H]2C(=O)N[C@H]3C(=O)N[C@H](C(=O)N[C@H](C(=O)O)c4cc(O)cc(O)c4-c4cc3ccc4O)[C@H](O)c3ccc(c(Cl)c3)Oc3cc2cc(c3O[C@@H]2O[C@H](CO)[C@@H](O)[C@H](O)[C@H]2O[C@H]2C[C@](C)(N)[C@H](O)[C@H](C)O2)Oc2ccc(cc2Cl)[C@H]1O [VAN],"MIC, QC range",S. aureus ATCC 29213 [5],(0.5-2) μg/mL
same,MIC,S. aureus ATCC 29213 [6],0.5 µg/mL
same,MIC,[7]; [8],4 µg/mL
same,MIC,[7]; Staphylococcus aureus NRS 2,0.5 µg/mL
same,MIC,[7]; Staphylococcus aureus NRS 3,8 µg/mL
same,MIC,[7]; Staphylococcus aureus NRS 4,4 µg/mL
same,MIC,[7]; Staphylococcus aureus NRS 13,2 µg/mL
same,MIC,[7]; Staphylococcus aureus NRS 18,4 µg/mL
same,MIC,[7]; Staphylococcus aureus NRS 22,4 µg/mL
same,MIC,[7]; [9],2 µg/mL
same,MIC,[7]; Staphylococcus aureus NRS 27,2 µg/mL
CCC[C@@H]1C[C@@H](C(=O)N[C@@H]([C@H]2O[C@H](SC)[C@H](O)[C@@H](O)[C@H]2O)[C@H](C)Cl)N(C)C1 [CLI],"MIC, QC range",S. aureus ATCC 29213 [5],(0.06-0.25) μg/mL
same,MIC,S. aureus ATCC 29213 [6],0.25 µg/mL
same,MIC,[7]; [8],>8 µg/mL
same,MIC,[7]; Staphylococcus aureus NRS 2,>8 µg/mL
same,MIC,[7]; Staphylococcus aureus NRS 3,>8 µg/mL
same,MIC,[7]; Staphylococcus aureus NRS 4,>8 µg/mL
same,MIC,[7]; Staphylococcus aureus NRS 13,0.06 µg/mL
same,MIC,[7]; Staphylococcus aureus NRS 18,>8 µg/mL
same,MIC,[7]; Staphylococcus aureus NRS 22,>8 µg/mL
same,MIC,[7]; [9],>8 µg/mL
same,MIC,[7]; Staphylococcus aureus NRS 27,>8 µg/mL
